Measurements published in US9505786B2, “Substituted annulated triazines and use thereof” (BAYER INTELLECTUAL PROPERTY GMBH, priority 2012, dated 2016).
pIC50: −log10 of the molar value. Like-named read-outs stand apart in the source and are kept apart here.

Columns and labels:
[1] = target: human phosphodiesterase 5 (PDE 5) (Homo sapiens (Human), UniProt O76074); assay: Inhibition of human phosphodiesterase 5 (PDE 5), SPA assay; format: biochemical; conditions: PDE 5 preparation from human platelets, [8-3H] cGMP substrate
Experimental: B-6. Inhibition of Human Phosphodiesterase 5 (PDE 5)
PDE 5 preparations are obtained from human platelets by disruption (Microfluidizer®, 800 bar, 3 passes), followed by centrifugation (75 000 g, 60 min, 4° C.) and ion exchange chromatography of the supernatant on a Mono Q 10/10 column (linear sodium chloride gradient, elution with a 0.2-0.3M solution of sodium chloride in buffer (20 mM Hepes pH 7.2, 2 mM magnesium chloride). Fractions having PDE 5 activity are combined (PDE 5 preparation) and stored at −80° C.
To determine their in vitro action on human PDE 5, the test substances are dissolved in 100% DMSO and serially diluted. Typically, dilution series (1:3) from 200 μM to 0.091 μM are prepared (resulting final concentrations in the test: 4 μM to 0.0018 μM). In each case 2 μl of the diluted substance solutions are placed into the wells of microtitre plates (Isoplate-96/200W; Perkin Elmer). Subsequently, 50 μl of a dilution of the above-described PDE 5 preparation are added. The dilution of the PDE 5 preparation is chosen such that during the later incubation less than 70% of the substrate are converted (typical dilution: 1:100; dilution buffer: 50 mM Tris/hydrochloric acid pH 7.5, 8.3 mM magnesium chloride, 1.7 mM EDTA, 0.2% BSA). The substrate, [8-^3H] cyclic guanosine-3′,5′-monophosphate (1 μCi/μl; Perkin Elmer) is diluted 1:2000 with assay buffer (50 mM tris/hydrochloric acid pH 7.5, 8.3 mM magnesium chloride, 1.7 mM EDTA) to a concentration of 0.0005 μCi/μl. By addition of 50 μl (0.025 μCi) of the diluted substrate, the enzyme reaction is finally started. The test mixtures are incubated at room temperature for 60 min and the reaction is stopped by adding 25 μl of a suspension of 18 mg/ml yttrium scintillation proximity beads in water (phosphodiesterase beads for SPA assays, RPNQ 0150, Perkin Elmer). The microtitre plates are sealed with a film and left to stand at room temperature for 60 min. Subsequently, the plates are analysed for 30 s per well in a Microbeta scintillation counter (Perkin Elmer). IC50 values are determined using the graphic plot of the substance concentration against percentage PDE 5 inhibition.

[2] = test system: recombinant guanylate cyclase reporter cell line; assay: Effect on a recombinant guanylate cyclase reporter cell line; format: cell-based
Experimental: B-2. Effect on a Recombinant Guanylate Cyclase Reporter Cell Line
The cellular activity of the compounds according to the invention is determined using a recombinant guanylate cyclase reporter cell line, as described in F. Wunder et al., Anal. Biochem. 339, 104-112 (2005).

aorta rings = assay: Vasorelaxant effect in vitro (phenylephrine-contracted aorta rings); conditions: rabbit aorta rings, organ bath, phenylephrine contraction, read-out: IC50 (concentration needed to reduce the phenylephrine contraction by 50%)
Experimental: B-1. Vasorelaxant Effect In Vitro
Rabbits are stunned by a blow to the neck and exsanguinated. The aorta is removed, freed from adhering tissue and divided into rings of a width of 1.5 mm. The rings are placed individually under an initial tension in 5 ml organ baths with Krebs-Henseleit solution which is at 37° C., is gassed with carbogen and has the following composition (in each case mM): sodium chloride: 119; potassium chloride: 4.8; calcium chloride dihydrate: 1; magnesium sulphate heptahydrate: 1.4; potassium dihydrogenphosphate: 1.2; sodium bicarbonate: 25; glucose: 10. The contractile force is determined with Statham UC2 cells, amplified and digitalized using A/D transducers (DAS-1802 HC, Keithley Instruments Munich), and recorded in parallel on linear recorders.
To produce a contraction, phenylephrine is added to the bath cumulatively in increasing concentration. After several control cycles, the substance to be investigated is added in each further run in increasing dosage in each case, and the height of the contraction achieved is compared with the height of the contraction reached in the last preceding run. This is used to calculate the concentration needed to reduce the magnitude of the control value by 50% (IC50 value). The standard administration volume is 5 μl; the DMSO content in the bath solution corresponds to 0.1%.

Compound | pIC50 [1] | MEC (minimum effective concentration) [2] | pIC50 (aorta rings; Oryctolagus cuniculus) | pIC50 (aorta rings)
CC(C)Cc1nc(-c2nn(Cc3ccccc3F)c3ncccc23)nc2c1C(C)(C)C(=O)N2 [Example 29, 2-[1-(2-Fluorobenzyl)-1H-pyrazolo[3,4-b]pyridin-3-yl]-4-isobutyl-5,5-dimethyl-5,7-dihydro-6H-pyrrolo[2,3-d]pyrimidin-6-one] | 6.38 | 100 nM | 6.11 | –
Cn1nccc1-c1nc(-c2nn(Cc3ccccc3F)c3ncccc23)nc2c1C(C)(C)C(=O)N2 [Example 40, 2-[1-(2-Fluorobenzyl)-1H-pyrazolo[3,4-b]pyridin-3-yl]-5,5-dimethyl-4-(1-methyl-1H-pyrazol-5-yl)-5,7-dihydro-6H-pyrrolo[2,3-d]pyrimidin-6-one] | 6.60 | 30 nM | 6.64 | –
CC(C)n1ccc(-c2nc(-c3nn(Cc4ccccc4F)c4ncccc34)nc3c2C(C)(C)C(=O)N3)n1 [Example 39, 2-[1-(2-Fluorobenzyl)-1H-pyrazolo[3,4-b]pyridin-3-yl]-4-(1-isopropyl-1H-pyrazol-3-yl)-5,5-dimethyl-5,7-dihydro-6H-pyrrolo[2,3-d]pyrimidin-6-one] | 6.62 | 30 nM | 6.65 | –
Cc1cccc(Cn2nc(-c3nnc4c(n3)NC(=O)C4(C)C)c3cc(F)cnc32)c1F [Example 12, 3-[5-Fluoro-1-(2-fluoro-3-methylbenzyl)-1H-pyrazolo[3,4-b]pyridin-3-yl]-7,7-dimethyl-5,7-dihydro-6H-pyrrolo[2,3-e][1,2,4]triazin-6-one] | 6.24 | 100 nM | 6.17 | –
CC1(C)C(=O)Nc2nc(-c3nn(Cc4ccccc4F)c4ncccc34)nc(CCCC(F)(F)F)c21 [Example 30, 2-[1-(2-Fluorobenzyl)-1H-pyrazolo[3,4-b]pyridin-3-yl]-5,5-dimethyl-4-(4,4,4-trifluorobutyl)-5,7-dihydro-6H-pyrrolo[2,3-d]pyrimidin-6-one] | 6.89 | 100 nM | 6.38 | –
Cn1c(C#N)ccc1-c1nc(-c2nn(Cc3ccccc3F)c3ncccc23)nc2c1C(C)(C)C(=O)N2 [Example 42, 5-{2-[1-(2-Fluorobenzyl)-1H-pyrazolo[3,4-b]pyridin-3-yl]-5,5-dimethyl-6-oxo-6,7-dihydro-5H-pyrrolo[2,3-d]pyrimidin-4-yl}-1-methyl-1H-pyrrole-2-carbonitrile] | 5.89 | 10 nM | 6.14 | –
CCCc1nc(-c2nn(Cc3ccccc3F)c3ncccc23)nc2c1C(C)(C)C(=O)N2 [Example 32, 2-[1-(2-Fluorobenzyl)-1H-pyrazolo[3,4-b]pyridin-3-yl]-5,5-dimethyl-4-propyl-5,7-dihydro-6H-pyrrolo[2,3-d]pyrimidin-6-one] | 6.96 | 100 nM | 6.61 | –
CCOCCC1(C)C(=O)Nc2nc(-c3nn(Cc4ccccc4F)c4ncc(F)cc34)nnc21 (stereo not shown) [Example 13, 7-(2-Ethoxyethyl)-3-[5-fluoro-1-(2-fluorobenzyl)-1H-pyrazolo[3,4-b]pyridin-3-yl]-7-methyl-5,7-dihydro-6H-pyrrolo[2,3-e][1,2,4]triazin-6-one] | 6.18 | 100 nM | 5.80 | –
O=C1Nc2nc(-c3nn(Cc4ccccc4F)c4ncccc34)ncc2C1(O)C(F)(F)C(F)(F)F (stereo not shown) [Example 3, 2-[1-(2-Fluorobenzyl)-1H-pyrazolo[3,4-b]pyridin-3-yl]-5-hydroxy-5-(pentafluoroethyl)-5,7-dihydro-6H-pyrrolo[2,3-d]pyrimidin-6-one] | 5.62 | 30 nM | 6.58 | –
CCC1(C)C(=O)Nc2nc(-c3nn(Cc4ccccc4F)c4ncc(F)cc34)nnc21 (racemic) [Example 7, 7-Ethyl-3-[5-fluoro-1-(2-fluorobenzyl)-1H-pyrazolo[3,4-b]pyridin-3-yl]-7-methyl-5,7-dihydro-6H-pyrrolo[2,3-e][1,2,4]triazin-6-one (racemate)] | 6.47 | 30 nM | 7.39 | –
CCC1(C)C(=O)Nc2nc(-c3nn(Cc4ccccc4F)c4ncc(F)cc34)nnc21 (single isomer, unassigned) [Example 7-1, 7-Ethyl-3-[5-fluoro-1-(2-fluorobenzyl)-1H-pyrazolo[3,4-b]pyridin-3-yl]-7-methyl-5,7-dihydro-6H-pyrrolo[2,3-e][1,2,4]triazin-6-one] | 6.70 | – | – | 7.23
CC1(CC2CC2)C(=O)Nc2nc(-c3nn(Cc4ccccc4F)c4ncc(F)cc34)nnc21 (single isomer, unassigned) [Example 5-1, 7-(Cyclopropylmethyl)-3-[5-fluoro-1-(2-fluorobenzyl)-1H-pyrazolo[3,4-b]pyridin-3-yl]-7-methyl-5,7-dihydro-6H-pyrrolo[2,3-e][1,2,4]triazin-6-one] | 6.46 | – | – | 6.49
CC1(CC2CC2)C(=O)Nc2nc(-c3nn(Cc4ccccc4F)c4ncc(F)cc34)nnc21 (single isomer, unassigned) [Example 5-2, 7-(Cyclopropylmethyl)-3-[5-fluoro-1-(2-fluorobenzyl)-1H-pyrazolo[3,4-b]pyridin-3-yl]-7-methyl-5,7-dihydro-6H-pyrrolo[2,3-e][1,2,4]triazin-6-one] | 6.60 | – | – | 6.18
CCC1(C)C(=O)Nc2nc(-c3nn(Cc4ccccc4F)c4ncc(F)cc34)nnc21 (single isomer, unassigned) [Example 7-2, 7-Ethyl-3-[5-fluoro-1-(2-fluorobenzyl)-1H-pyrazolo[3,4-b]pyridin-3-yl]-7-methyl-5,7-dihydro-6H-pyrrolo[2,3-e][1,2,4]triazin-6-one] | 6.46 | – | – | 6.73
CC1(C)C(=O)Nc2nc(-c3nn(Cc4ccccc4F)c4nc(C(F)(F)F)ccc34)nnc21 [Example 19, 3-[1-(2-Fluorobenzyl)-6-(trifluoromethyl)-1H-pyrazolo[3,4-b]pyridin-3-yl]-7,7-dimethyl-5,7-dihydro-6H-pyrrolo[2,3-e][1,2,4]triazin-6-one] | 7.42 | 1000 nM | – | –
CC1(CC(=O)O)C(=O)Nc2nc(-c3nn(Cc4ccccc4F)c4ncc(F)cc34)nnc21 (racemic) [Example 52, (rac){3-[5-Fluoro-1-(2-fluorobenzyl)-1H-pyrazolo[3,4-b]pyridin-3-yl]-7-methyl-6-oxo-6,7-dihydro-5H-pyrrolo[2,3-e][1,2,4]triazin-7-yl}acetic acid] | 5.41 | 1000 nM | – | –
CC1(C)C(=O)Nc2nc(-c3nn(Cc4ccccc4F)c4ncccc34)nc(CNS(C)(=O)=O)c21 [Example 24, N-({2-[1-(2-Fluorobenzyl)-1H-pyrazolo[3,4-b]pyridin-3-yl]-5,5-dimethyl-6-oxo-6,7-dihydro-5H-pyrrolo[2,3-d]pyrimidin-4-yl}methyl)methanesulphonamide] | 7.32 | 30 nM | – | –
CC1(C)C(=O)Nc2nc(-c3nn(Cc4ccccc4F)c4ncccc34)nc(CC(N)=O)c21 [Example 61, 2-{2-[1-(2-Fluorobenzyl)-1H-pyrazolo[3,4-b]pyridin-3-yl]-5,5-dimethyl-6-oxo-6,7-dihydro-5H-pyrrolo[2,3-d]pyrimidin-4-yl}acetamide] | 7.82 | 30 nM | – | –
